Measured values published in ChEMBL document CHEMBL3351292, “Structure-Based Design and Synthesis of Potent Cyclic Peptides Inhibiting the YAP-TEAD Protein-Protein Interaction” (ACS Med Chem Lett, 2014).
Where a SMILES comes first, the peptide text is derived from it.

Biological target: Transcriptional coactivator YAP1/Transcriptional enhancer factor TEF-1 (Homo sapiens) (UniProt P46937+P28347)
Test: Inhibition of YAP/ GST-TEAD1 (unknown origin) interaction at 50 uM by surface plasmon resonance assay
Format: protein assay

Transcriptional coactivator YAP1/Transcriptional enhancer factor TEF-1 (Homo sapiens), sequence (P28347 whole entry, looked up): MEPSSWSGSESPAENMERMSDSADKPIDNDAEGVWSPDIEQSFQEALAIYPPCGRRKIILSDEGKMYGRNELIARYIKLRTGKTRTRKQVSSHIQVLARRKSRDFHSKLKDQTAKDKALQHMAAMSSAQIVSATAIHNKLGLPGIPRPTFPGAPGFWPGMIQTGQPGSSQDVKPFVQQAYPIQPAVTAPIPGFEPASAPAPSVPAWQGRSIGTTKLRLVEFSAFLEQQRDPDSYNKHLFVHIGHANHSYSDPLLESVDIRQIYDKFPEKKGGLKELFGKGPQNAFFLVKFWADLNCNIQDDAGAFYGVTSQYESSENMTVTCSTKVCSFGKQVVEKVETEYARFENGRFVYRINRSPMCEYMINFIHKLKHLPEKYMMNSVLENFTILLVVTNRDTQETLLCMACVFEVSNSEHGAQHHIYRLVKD
Transcriptional coactivator YAP1/Transcriptional enhancer factor TEF-1 (Homo sapiens), sequence (P46937 whole entry, looked up): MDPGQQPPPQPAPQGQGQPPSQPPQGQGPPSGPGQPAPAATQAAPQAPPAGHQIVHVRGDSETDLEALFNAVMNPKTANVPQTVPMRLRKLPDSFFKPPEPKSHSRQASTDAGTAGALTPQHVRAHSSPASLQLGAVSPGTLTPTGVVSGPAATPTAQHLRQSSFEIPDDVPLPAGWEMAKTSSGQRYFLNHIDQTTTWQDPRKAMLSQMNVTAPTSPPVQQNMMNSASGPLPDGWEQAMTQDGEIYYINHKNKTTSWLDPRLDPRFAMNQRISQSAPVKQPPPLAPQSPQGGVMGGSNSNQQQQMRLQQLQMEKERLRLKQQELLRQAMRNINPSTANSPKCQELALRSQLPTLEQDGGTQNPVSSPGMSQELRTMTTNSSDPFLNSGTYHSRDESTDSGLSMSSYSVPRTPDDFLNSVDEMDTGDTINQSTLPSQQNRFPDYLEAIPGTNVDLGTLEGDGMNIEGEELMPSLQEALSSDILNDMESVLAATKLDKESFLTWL

SMILES | inhibition [%]
CSCC[C@H](NC(=O)[C@@H]1CCCN1C(=O)[C@@H](NC(=O)[C@@H](NC(=O)[C@H](CCC(N)=O)NC(C)=O)[C@@H](C)O)C(C)C)C(=O)N[C@@H](CCCNC(=N)N)C(=O)N[C@@H](CC(C)C)C(=O)N[C@@H](CCCNC(=N)N)C(=O)N[C@@H](CCCCN)C(=O)N[C@@H](CC(C)C)C(=O)N1CCC[C@H]1C(=O)N[C@@H](CC(=O)O)C(=O)N[C@@H](CO)C(=O)N[C@@H](Cc1ccccc1)C(=O)N[C@@H](Cc1ccccc1)C(=O)N[C@@H](CCCCN)C(=O)N1CCC[C@H]1C(=O)N1CCC[C@H]1C(=O)N[C@@H](CCC(=O)O)C(N)=O | 59
CSCC[C@H](NC(=O)[C@@H]1CCCN1C(=O)[C@@H](NC(=O)[C@@H](NC(C)=O)[C@@H](C)O)C(C)C)C(=O)N[C@@H](CCCNC(=N)N)C(=O)N[C@@H](CC(C)C)C(=O)N[C@@H](CCCNC(=N)N)C(=O)N[C@@H](CCCCN)C(=O)N[C@@H](CC(C)C)C(=O)N1CCC[C@H]1C(=O)N[C@@H](CC(=O)O)C(=O)N[C@@H](CO)C(=O)N[C@@H](Cc1ccccc1)C(=O)N[C@@H](Cc1ccccc1)C(=O)N[C@@H](CCCCN)C(=O)N1CCC[C@H]1C(=O)N1CCC[C@H]1C(=O)N[C@@H](CCC(=O)O)C(N)=O | 60
CSCC[C@H](NC(=O)[C@@H]1CCCN1C(=O)[C@@H](NC(=O)[C@H](C)NC(=O)[C@H](CCC(N)=O)NC(=O)[C@@H]1CCCN1C(C)=O)C(C)C)C(=O)N[C@@H](CCCNC(=N)N)C(=O)N[C@@H](CC(C)C)C(=O)N[C@@H](CCCNC(=N)N)C(=O)N[C@@H](CCCCN)C(=O)N[C@@H](CC(C)C)C(=O)N1CCC[C@H]1C(=O)N[C@@H](CC(=O)O)C(=O)N[C@@H](CO)C(=O)N[C@@H](Cc1ccccc1)C(=O)N[C@@H](Cc1ccccc1)C(=O)N[C@@H](CCCCN)C(=O)N1CCC[C@H]1C(=O)N1CCC[C@H]1C(=O)N[C@@H](CCC(=O)O)C(N)=O | 52
CSCC[C@H](NC(C)=O)C(=O)N[C@@H](CCCNC(=N)N)C(=O)N[C@@H](CC(C)C)C(=O)N[C@@H](CCCNC(=N)N)C(=O)N[C@@H](CCCCN)C(=O)N[C@@H](CC(C)C)C(=O)N1CCC[C@H]1C(=O)N[C@@H](CC(=O)O)C(=O)N[C@@H](CO)C(=O)N[C@@H](Cc1ccccc1)C(=O)N[C@@H](Cc1ccccc1)C(=O)N[C@@H](CCCCN)C(=O)N1CCC[C@H]1C(=O)N1CCC[C@H]1C(=O)N[C@@H](CCC(=O)O)C(N)=O (Ac-MRLRKLPDSFFKPPE-NH2) | 12
CSCC[C@H](NC(=O)[C@@H]1CCCN1C(C)=O)C(=O)N[C@@H](CCCNC(=N)N)C(=O)N[C@@H](CC(C)C)C(=O)N[C@@H](CCCNC(=N)N)C(=O)N[C@@H](CCCCN)C(=O)N[C@@H](CC(C)C)C(=O)N1CCC[C@H]1C(=O)N[C@@H](CC(=O)O)C(=O)N[C@@H](CO)C(=O)N[C@@H](Cc1ccccc1)C(=O)N[C@@H](Cc1ccccc1)C(=O)N[C@@H](CCCCN)C(=O)N1CCC[C@H]1C(=O)N1CCC[C@H]1C(=O)N[C@@H](CCC(=O)O)C(N)=O (Ac-PMRLRKLPDSFFKPPE-NH2) | 25
CSCC[C@H](NC(=O)[C@@H]1CCCN1C(=O)[C@H](C)NC(=O)[C@@H](NC(=O)[C@H](CCC(N)=O)NC(=O)[C@@H]1CCCN1C(C)=O)[C@@H](C)O)C(=O)N[C@@H](CCCNC(=N)N)C(=O)N[C@@H](CC(C)C)C(=O)N[C@@H](CCCNC(=N)N)C(=O)N[C@@H](CCCCN)C(=O)N[C@@H](CC(C)C)C(=O)N1CCC[C@H]1C(=O)N[C@@H](CC(=O)O)C(=O)N[C@@H](CO)C(=O)N[C@@H](Cc1ccccc1)C(=O)N[C@@H](Cc1ccccc1)C(=O)N[C@@H](CCCCN)C(=O)N1CCC[C@H]1C(=O)N1CCC[C@H]1C(=O)N[C@@H](CCC(=O)O)C(N)=O (Ac-PQTAPMRLRKLPDSFFKPPE-NH2) | 26
CSCC[C@H](NC(=O)[C@H](C)NC(=O)[C@@H](NC(=O)[C@@H](NC(=O)[C@H](CCC(N)=O)NC(=O)[C@@H]1CCCN1C(C)=O)[C@@H](C)O)C(C)C)C(=O)N[C@@H](CCCNC(=N)N)C(=O)N[C@@H](CC(C)C)C(=O)N[C@@H](CCCNC(=N)N)C(=O)N[C@@H](CCCCN)C(=O)N[C@@H](CC(C)C)C(=O)N1CCC[C@H]1C(=O)N[C@@H](CC(=O)O)C(=O)N[C@@H](CO)C(=O)N[C@@H](Cc1ccccc1)C(=O)N[C@@H](Cc1ccccc1)C(=O)N[C@@H](CCCCN)C(=O)N1CCC[C@H]1C(=O)N1CCC[C@H]1C(=O)N[C@@H](CCC(=O)O)C(N)=O (Ac-PQTVAMRLRKLPDSFFKPPE-NH2) | 33
CC(=O)N1CCC[C@H]1C(=O)N[C@@H](CCC(N)=O)C(=O)N[C@H](C(=O)N[C@H](C(=O)N1CCC[C@H]1C(=O)N[C@@H](C)C(=O)N[C@@H](CCCNC(=N)N)C(=O)N[C@@H](CC(C)C)C(=O)N[C@@H](CCCNC(=N)N)C(=O)N[C@@H](CCCCN)C(=O)N[C@@H](CC(C)C)C(=O)N1CCC[C@H]1C(=O)N[C@@H](CC(=O)O)C(=O)N[C@@H](CO)C(=O)N[C@@H](Cc1ccccc1)C(=O)N[C@@H](Cc1ccccc1)C(=O)N[C@@H](CCCCN)C(=O)N1CCC[C@H]1C(=O)N1CCC[C@H]1C(=O)N[C@@H](CCC(=O)O)C(N)=O)C(C)C)[C@@H](C)O (Ac-PQTVPARLRKLPDSFFKPPE-NH2) | 1.3
CSCC[C@H](NC(=O)[C@@H]1CCCN1C(=O)[C@@H](NC(=O)[C@@H](NC(=O)[C@H](CCC(N)=O)NC(=O)[C@@H]1CCCN1C(C)=O)[C@@H](C)O)C(C)C)C(=O)N[C@@H](C)C(=O)N[C@@H](CC(C)C)C(=O)N[C@@H](CCCNC(=N)N)C(=O)N[C@@H](CCCCN)C(=O)N[C@@H](CC(C)C)C(=O)N1CCC[C@H]1C(=O)N[C@@H](CC(=O)O)C(=O)N[C@@H](CO)C(=O)N[C@@H](Cc1ccccc1)C(=O)N[C@@H](Cc1ccccc1)C(=O)N[C@@H](CCCCN)C(=O)N1CCC[C@H]1C(=O)N1CCC[C@H]1C(=O)N[C@@H](CCC(=O)O)C(N)=O (Ac-PQTVPMALRKLPDSFFKPPE-NH2) | 23
CSCC[C@H](NC(=O)[C@@H]1CCCN1C(=O)[C@@H](NC(=O)[C@@H](NC(=O)[C@H](CCC(N)=O)NC(=O)[C@@H]1CCCN1C(C)=O)[C@@H](C)O)C(C)C)C(=O)N[C@@H](CCCNC(=N)N)C(=O)N[C@@H](C)C(=O)N[C@@H](CCCNC(=N)N)C(=O)N[C@@H](CCCCN)C(=O)N[C@@H](CC(C)C)C(=O)N1CCC[C@H]1C(=O)N[C@@H](CC(=O)O)C(=O)N[C@@H](CO)C(=O)N[C@@H](Cc1ccccc1)C(=O)N[C@@H](Cc1ccccc1)C(=O)N[C@@H](CCCCN)C(=O)N1CCC[C@H]1C(=O)N1CCC[C@H]1C(=O)N[C@@H](CCC(=O)O)C(N)=O (Ac-PQTVPMRARKLPDSFFKPPE-NH2) | 49
CSCC[C@H](NC(=O)[C@@H]1CCCN1C(=O)[C@@H](NC(=O)[C@@H](NC(=O)[C@H](CCC(N)=O)NC(=O)[C@@H]1CCCN1C(C)=O)[C@@H](C)O)C(C)C)C(=O)N[C@@H](CCCNC(=N)N)C(=O)N[C@@H](CC(C)C)C(=O)N[C@@H](C)C(=O)N[C@@H](CCCCN)C(=O)N[C@@H](CC(C)C)C(=O)N1CCC[C@H]1C(=O)N[C@@H](CC(=O)O)C(=O)N[C@@H](CO)C(=O)N[C@@H](Cc1ccccc1)C(=O)N[C@@H](Cc1ccccc1)C(=O)N[C@@H](CCCCN)C(=O)N1CCC[C@H]1C(=O)N1CCC[C@H]1C(=O)N[C@@H](CCC(=O)O)C(N)=O (Ac-PQTVPMRLAKLPDSFFKPPE-NH2) | 1.7
CSCC[C@H](NC(=O)[C@@H]1CCCN1C(=O)[C@@H](NC(=O)[C@@H](NC(=O)[C@H](CCC(N)=O)NC(=O)[C@@H]1CCCN1C(C)=O)[C@@H](C)O)C(C)C)C(=O)N[C@@H](CCCNC(=N)N)C(=O)N[C@@H](CC(C)C)C(=O)N[C@@H](CCCNC(=N)N)C(=O)N[C@@H](C)C(=O)N[C@@H](CC(C)C)C(=O)N1CCC[C@H]1C(=O)N[C@@H](CC(=O)O)C(=O)N[C@@H](CO)C(=O)N[C@@H](Cc1ccccc1)C(=O)N[C@@H](Cc1ccccc1)C(=O)N[C@@H](CCCCN)C(=O)N1CCC[C@H]1C(=O)N1CCC[C@H]1C(=O)N[C@@H](CCC(=O)O)C(N)=O (Ac-PQTVPMRLRALPDSFFKPPE-NH2) | 42
CSCC[C@H](NC(=O)[C@@H]1CCCN1C(=O)[C@@H](NC(=O)[C@@H](NC(=O)[C@H](CCC(N)=O)NC(=O)[C@@H]1CCCN1C(C)=O)[C@@H](C)O)C(C)C)C(=O)N[C@@H](CCCNC(=N)N)C(=O)N[C@@H](CC(C)C)C(=O)N[C@@H](CCCNC(=N)N)C(=O)N[C@@H](CCCCN)C(=O)N[C@@H](C)C(=O)N1CCC[C@H]1C(=O)N[C@@H](CC(=O)O)C(=O)N[C@@H](CO)C(=O)N[C@@H](Cc1ccccc1)C(=O)N[C@@H](Cc1ccccc1)C(=O)N[C@@H](CCCCN)C(=O)N1CCC[C@H]1C(=O)N1CCC[C@H]1C(=O)N[C@@H](CCC(=O)O)C(N)=O (Ac-PQTVPMRLRKAPDSFFKPPE-NH2) | 0
CSCC[C@H](NC(=O)[C@@H]1CCCN1C(=O)[C@@H](NC(=O)[C@@H](NC(=O)[C@H](CCC(N)=O)NC(=O)[C@@H]1CCCN1C(C)=O)[C@@H](C)O)C(C)C)C(=O)N[C@@H](CCCNC(=N)N)C(=O)N[C@@H](CC(C)C)C(=O)N[C@@H](CCCNC(=N)N)C(=O)N[C@@H](CCCCN)C(=O)N[C@@H](CC(C)C)C(=O)N[C@@H](C)C(=O)N[C@@H](CC(=O)O)C(=O)N[C@@H](CO)C(=O)N[C@@H](Cc1ccccc1)C(=O)N[C@@H](Cc1ccccc1)C(=O)N[C@@H](CCCCN)C(=O)N1CCC[C@H]1C(=O)N1CCC[C@H]1C(=O)N[C@@H](CCC(=O)O)C(N)=O (Ac-PQTVPMRLRKLADSFFKPPE-NH2) | 0
CSCC[C@H](NC(=O)[C@@H]1CCCN1C(=O)[C@@H](NC(=O)[C@@H](NC(=O)[C@H](CCC(N)=O)NC(=O)[C@@H]1CCCN1C(C)=O)[C@@H](C)O)C(C)C)C(=O)N[C@@H](CCCNC(=N)N)C(=O)N[C@@H](CC(C)C)C(=O)N[C@@H](CCCNC(=N)N)C(=O)N[C@@H](CCCCN)C(=O)N[C@@H](CC(C)C)C(=O)N1CCC[C@H]1C(=O)N[C@@H](CC(=O)O)C(=O)N[C@@H](C)C(=O)N[C@@H](Cc1ccccc1)C(=O)N[C@@H](Cc1ccccc1)C(=O)N[C@@H](CCCCN)C(=O)N1CCC[C@H]1C(=O)N1CCC[C@H]1C(=O)N[C@@H](CCC(=O)O)C(N)=O (Ac-PQTVPMRLRKLPDAFFKPPE-NH2) | 1.6
CSCC[C@H](NC(=O)[C@@H]1CCCN1C(=O)[C@@H](NC(=O)[C@@H](NC(=O)[C@H](CCC(N)=O)NC(=O)[C@@H]1CCCN1C(C)=O)[C@@H](C)O)C(C)C)C(=O)N[C@@H](CCCNC(=N)N)C(=O)N[C@@H](CC(C)C)C(=O)N[C@@H](CCCNC(=N)N)C(=O)N[C@@H](CCCCN)C(=O)N[C@@H](CC(C)C)C(=O)N1CCC[C@H]1C(=O)N[C@@H](CC(=O)O)C(=O)N[C@@H](CO)C(=O)N[C@@H](C)C(=O)N[C@@H](Cc1ccccc1)C(=O)N[C@@H](CCCCN)C(=O)N1CCC[C@H]1C(=O)N1CCC[C@H]1C(=O)N[C@@H](CCC(=O)O)C(N)=O (Ac-PQTVPMRLRKLPDSAFKPPE-NH2) | 4
